One block for each compound: values may come before it.
Molecular target: TRKA (Homo sapiens (Human), UniProt P04629)
Test: Isolated TRK enzyme assay (HTRF KinEASE-TK), TRKA
Type: biochemical
Settings: read-out: Trka enzyme (IC50)

Sequence of TRKA (P04629 441-796): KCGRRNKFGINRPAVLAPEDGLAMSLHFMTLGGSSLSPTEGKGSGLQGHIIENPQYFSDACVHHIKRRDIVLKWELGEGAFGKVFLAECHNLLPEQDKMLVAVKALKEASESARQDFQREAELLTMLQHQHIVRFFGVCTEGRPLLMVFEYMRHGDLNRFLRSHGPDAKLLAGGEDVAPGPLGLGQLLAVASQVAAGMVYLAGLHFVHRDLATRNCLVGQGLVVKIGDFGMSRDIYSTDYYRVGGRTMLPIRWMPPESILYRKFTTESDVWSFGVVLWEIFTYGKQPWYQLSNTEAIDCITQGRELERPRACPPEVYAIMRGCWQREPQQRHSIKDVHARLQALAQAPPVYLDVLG

SMILES: CC(C)n1cc(C(=O)c2cncc(NC(=O)Cc3cnccn3)c2)c2cncnc21 [Example 376, N-[5-(7-Isopropyl-7H-pyrrolo[2,3-d]pyrimidine-5-carbonyl)-pyridin-3-yl]-2-pyrazin-2-yl-acetamide]
IC50: 5.1 µM

SMILES: CC(C)c1nnc2ccc(C(=O)Nc3cncc(C(=O)c4cn(C(C)C)c5ncncc45)c3)cn12 [Example 492, 3-Isopropyl-1,2,4-triazolo[4,3-a]pyridine-6-carboxylic acid [5-(7-isopropyl-7H-pyrrolo[2,3-d]pyrimidine-5-carbonyl)-pyridin-3-yl]-amide]
IC50: 1.69 µM

SMILES: Cc1n[nH]c2ncc(C(=O)Nc3cncc(C(=O)c4cn(C(C)C)c5ncncc45)c3)cc12 [Example 475, 3-Methyl-1H-pyrazolo[3,4-b]pyridine-5-carboxylic acid [5-(7-isopropyl-7H-pyrrolo[2,3-d]pyrimidine-5-carbonyl)-pyridin-3-yl]-amide]
IC50: 0.643 µM

SMILES: CC(C)n1cc(C(=O)c2cncc(NC(=O)c3ccnnc3)c2)c2cncnc21 [Example 509, Pyridazine-4-carboxylic acid [5-(7-isopropyl-7H-pyrrolo[2,3-d]pyrimidine-5-carbonyl)-pyridin-3-yl]-amide]
IC50: 9.8 µM

SMILES: Cn1cc(C(=O)c2cncc(NC(=O)Cc3cc(F)ccc3C(F)(F)F)c2)c2cncnc21 [Example 167, 2-[5-Fluoro-2-(trifluoromethyl)phenyl]-N-{5-[(7-methyl-7H-pyrrolo[2,3-d]pyrimidin-5-yl)carbonyl]pyridin-3-yl}acetamide]
IC50: 3.47 µM

These reach a lower IC50. Values come first.

IC50: 0.286 µM
SMILES: O=C(Cc1ccc(Cl)cc1)Nc1cncc(C(=O)c2cn(C3COC3)c3ncncc23)c1 [Example 219, 2-(4-chlorophenyl)-N-{5-[(7-oxetan-3-yl-7H-pyrrolo[2,3-d]pyrimidin-5-yl)carbonyl]pyridin-3-yl}acetamide]

IC50: 0.165 µM
SMILES: Cn1cc(C(=O)c2cncc(NC(=O)Cc3cccc(OC(F)(F)F)c3)c2)c2cncnc21 [Example 176, N-{5-[(7-methyl-7H-pyrrolo[2,3-d]pyrimidin-5-yl)carbonyl]pyridin-3-yl}-2-[3-(trifluoromethoxy)phenyl]acetamide]

IC50: 0.156 µM
SMILES: O=C(Cn1ccc(C(F)(F)F)n1)Nc1cncc(C(=O)c2cn(C3(CO)COC3)c3ncncc23)c1 [Example 302, N-[5-({7-[3-(hydroxymethyl)oxetan-3-yl]-7H-pyrrolo[2,3-d]pyrimidin-5-yl}carbonyl)pyridin-3-yl]-2-[3-(trifluoromethyl)-1H-pyrazol-1-yl]acetamide]

IC50: 0.0934 µM
SMILES: CC(C)n1cc(C(=O)c2cncc(NC(=O)c3ccn4ncnc4c3)c2)c2cncnc21 [Example 427, [1,2,4]Triazolo[1,5-a]pyridine-7-carboxylic acid [5-(7-isopropyl-7H-pyrrolo[2,3-d]pyrimidine-5-carbonyl)-pyridin-3-yl]amide]

IC50: 0.0122 µM
SMILES: C[C@H](CO)n1cc(C(=O)c2cncc(NC(=O)Cc3cccc(C(F)(F)F)c3)c2)c2cncnc21 [Example 205, N-[5-({7-[(1R)-2-hydroxy-1-methylethyl]-7H-pyrrolo[2,3-d]pyrimidin-5-yl}carbonyl)pyridin-3-yl]-2-[3-(trifluoromethyl)phenyl]acetamide]

IC50: 0.0118 µM
SMILES: CC(C)(CO)n1cc(C(=O)c2cncc(NC(=O)Cc3cccc(S(C)(=O)=O)c3)c2)c2cnc(N)nc21 [Example 258, N-(5-{[2-amino-7-(2-hydroxy-1,1-dimethylethyl)-7H-pyrrolo[2,3-d]pyrimidin-5-yl]carbonyl}pyridin-3-yl)-2-[3-(methylsulfonyl)phenyl]acetamide]

IC50: 0.00881 µM
SMILES: CC(C)n1cc(C(=O)c2cncc(NC(=O)Cn3ccc(C4CC4)n3)c2)c2cncnc21 [Example 90, 2-(3-cyclopropyl-1H-pyrazol-1-yl)-N-{5-[(7-isopropyl-7H-pyrrolo[2,3-d]pyrimidin-5-yl)carbonyl]pyridin-3-yl}acetamide]

— patent US8846698B2, “Pyrrolo[2,3-d]pyrimidine tropomysin-related kinase inhibitors” (Pfizer Limited, priority 2011, dated 2014)
